# Patent publication US20100222421A1, “Usage of Baicalein in the Preparation of a Pharmaceutical Composition for the Treatment of Traumatic Brain Injury” (National Defense Medical Center, priority 2009, published 2010)
# Assays:
# [1] = tested on: TNF-α mRNA; experiment: Real-time quantitative RT-PCR, TNF-α mRNA after CCI injury; type: in vivo, rat; conditions: single-dose 30 mg kg^-1 i.p.; ipsilateral cortex, 6 h after injury; P<0.05
# Method: A previously described CCI injury procedure was utilized (Chen et al., 2003). Male Sprague-Dawley rats, which have body weight of 250-300 g, were anaesthetized with sodium pentobarbital (i.p.; 50 mgkg^−1; Rhone Merieux, Harlow, UK) and placed in a stereotaxic frame. A 5-mm craniotomy was performed over the left parietal cortex, centered on the coronal suture and 3 mm lateral to the sagittal suture. Considerable care was taken to avoid injury to the underlying dura. Injury was made using a pneumatic piston with a rounded metal tip (2.5 mm diameter) that was angled 22.5° C. to the vertical so that the tip was perpendicular with the brain surface at the centre of the craniotomy. A velocity of 4 ms^−1 and a deformation depth 2 mm below the dura were used. […] Body temperature was monitored throughout the surgery by a rectal probe; temperature was maintained at 37.0±0.5° C. using a heated pad. […] Testing after injury was as follows: (1) real-time quantitative RT-PCR analysis for TNF-α, IL-1β and IL-6 mRNA expression at 6 h post-injury (n=7 for each group); (2) FluoroJade B (FJB) staining, TNF-α, IL-1β and IL-6 immunohistochemistry, as well as ELISA at 24 h post-injury to assess degenerative neurons and to determine cytokine expression (n=7 for each group). […] Approximately 50 mg tissue was collected from the ipsilateral (injured) hemisphere and processed for real-time quantitative RT-PCR. […]
# [2] = tested on: rats with controlled cortical impact (CCI) injury; experiment: Tactile adhesive-removal somatosensory test after CCI injury; type: in vivo, rat; conditions: P<0.05; for adhesive-removal times versus vehicle-treated rats: days 1, 4 and 7
# Method: A previously described CCI injury procedure was utilized (Chen et al., 2003). Male Sprague-Dawley rats, which have body weight of 250-300 g, were anaesthetized with sodium pentobarbital (i.p.; 50 mgkg^−1; Rhone Merieux, Harlow, UK) and placed in a stereotaxic frame. A 5-mm craniotomy was performed over the left parietal cortex, centered on the coronal suture and 3 mm lateral to the sagittal suture. Considerable care was taken to avoid injury to the underlying dura. Injury was made using a pneumatic piston with a rounded metal tip (2.5 mm diameter) that was angled 22.5° C. to the vertical so that the tip was perpendicular with the brain surface at the centre of the craniotomy. A velocity of 4 ms^−1 and a deformation depth 2 mm below the dura were used. The bone flap was immediately replaced and sealed, and the scalp was closed with sutures. Body temperature was monitored throughout the surgery by a rectal probe; temperature was maintained at 37.0±0.5° C. using a heated pad. Rats were placed in a heated cage to maintain body temperature, while recovering from anaesthesia. Baicalein (30 mg kg^−1) dissolved in 10% dimethyl sulphoxide (0.25-0.3 mL) or a corresponding volume of vehicle (10% dimethyl sulphoxide) was administered i.p. immediately following injury or daily for 4 days (immediately, 25, 49 and 73 h) after injury. Behaviour testing using the rotarod, tactile adhesive removal, mNSS and beam walk tests was performed at 28 hours as well as 4, 7, 14, 21 and 28 days post-injury. At 14 and 28 days, the animals were killed, perfused intravascularly and their brains were processed with cresyl violet staining to assess contusion volume (n=8 for each group). […] Behaviour testing was performed before CCI and at […] after CCI by an observer who was unaware of the experimental treatments. […] The time required for each rat to remove adhesive from the forelimb was recorded for five trials per day. […] One hour before CCI, mean latency (in seconds) over five trials to remove the contralateral (right) adhesive was recorded as the pre-injury baseline value.
compound,measurement,setting,value
O=c1cc(-c2ccccc2)oc2cc(O)c(O)c(O)c12 [baicalein],"TNF-α mRNA level, % of level in vehicle-treated injured rats",[1],49%
same,"adhesive-removal times, multiple doses versus single dose","[2]; 30 mg kg^-1 i.p., only on day 7 after injury",significantly lower
same,adhesive-removal times versus vehicle-treated rats,[2]; multiple-dose 30 mg kg^-1 i.p. daily for 4 days,significantly lower
same,adhesive-removal times versus vehicle-treated rats,[2]; single-dose 30 mg kg^-1 i.p.,significantly lower
